Converted amounts (≈) assume the structure as drawn. Like-named read-outs stand apart in the source and are kept apart here.
Legend:
HepG2 cells = experiment: Apoptosis induction by laser confocal scanning microscope; type: cell-based, human; conditions: HepG2, 48 h
Procedure: Two solutions (a former one and a later one) were mixed, centrifugation was performed at 1000 r/min for 5 min, the supernatant was discarded, and washing was performed for 3 times with PBS. The cell precipitate was resuspended in Binding Buffer, 10 μL of a FITC-Annen V staining liquid was added, homogenized by pipetting slightly, and reaction was performed under protection from light. PI was added for staining for 15 min, centrifugation was performed, the supernatant was discarded, and washing was performed for 3 times again with PBS. A glass slide was loaded by applying the cell precipitate thereto and mounted with non-fluorescent buffering glycerol, a laser confocal scanning microscope was immediately used for observation and taking photographs at wavelengths of 488 nm and 560 nm. Meanwhile, cells without AnneixnV-FITC and PI added were used as a negative control.

[1] = test system: human gastric cancer cell strain MGC-803; experiment: MTT growth inhibition on MGC-803; conditions: Homo sapiens;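 further: adherent cells exposed to compound over a concentration gradient for 24, 48 and 72 h, MTT absorbance at 490 nm, inhibition relative to untreated control wells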
Method: (§2) By using an MTT method, a sample solution to be tested was added to a 96-well plate in which cancer cells were adherently grown. Culturing was performed for a certain period, and the growth inhibition effect of a compound on a human cancer cell strain for primary screening was measured to determine the anti-cancer activity of the compound.
(§3) Cell culture: A cell incubator was set to conditions of 37° C., 5% CO2, and a saturated humidity, cells were cultured under these conditions, and the cell medium was a DMEM complete medium, wherein 10% fetal bovine serum, 100 IU/mL penicillin, and 100 μg/mL streptomycin were comprised.
(§4) The single cell suspension was diluted to 5×10^3/100 μL after counting, inoculated on a 96-well cell culture plate (triplicate), and adherently cultured overnight;
(§5) After 24 h of adhesion, the complete medium was discarded, 100 μL-sample-solutions to be tested having different concentrations were sequentially added to the 96-well plate according to a concentration gradient, and incubations were continued for 24 h, 48 h, and 72 h;
(§6) The culture liquid was discarded, a 0.5 mg/mL MTT diluted working liquid was added, and incubation was performed for 4 h by placing in an incubator;
(§7) The culture liquid was discarded, 100 μL of DMSO was added, low-speed oscillation was performed for 10 min by placing on a shaker, and the spectrophotometric value of each well was measured at a wavelength of 490 nm by using a microplate reader. Statistical analysis was performed and tumor cell growth inhibition rate was calculated according to the equation: Growth inhibition rate=(OD value of control group−OD value of experimental group)/OD value of control group.
(§8) Culturing was performed for a certain period, the growth inhibition effect of a compound on 3 human cancer cell strains for primary screening was measured to determine the anti-cancer activity of the compound, and a growth inhibition curve was plotted.

Vimentin = experiment: Western blotting, Vimentin expression in HepG2 cells; type: cell-based, human; conditions: FICD experiment (FIG. 12)
Procedure: (§1) Method: Gel electrophoresis of protein samples. Gel formulation: All components were added to a small beaker according to a formulation of a separation gel, uniformly mixed with slightly shaking to prevent the generation of bubbles, quickly applied to a seam of a glass plate with a 1 mL pipette, and then blocked with double distilled water to prevent oxidation. After 30 min, the separation gel solidified, the double distilled water thereof was poured off, waster was suctioned with a filter paper, a 5% concentration gel was formulated, TEMED was finally loaded onto the glass plate, and a 1.0 mm comb was inserted into the concentration gel and placed at room temperature for 30 min. The comb was slightly, vertically, and carefully pulled up, various groups of 20 μL protein samples were pipetted with a microsyringe, an equal volume of a loading buffer and an equal volume of a loading buffer containing 3 μL of Marker were separately added to a loading well, an electrophoresis instrument was switched on after electrodes were plugged, gels were run at 75V for 30 min, and the voltage was changed to 120V and gels were run for 2 h when bromophenol blue reaches the separation gel. Membrane transfer: A PVDF membrane having a suitable size was cut according to the size of the gel, placed in a methanol solution for 1 min, lifted, and placed and soaked together with a well cut filter paper in a previously precooled membrane transfer buffer. A sponge pad, three layers of filter paper, a gel, three layers of filter paper, and a sponge pad, in this order from top to bottom, were placed in a membrane transfer tank, and a precooled membrane transfer buffer was then added. Several ice bags were placed circumferentially to prevent an excessively hot external environment, and electrodes were plugged and membrane transfer was performed at a constant current of […] for 2.5 hours. Blocking and incubation of antibodies: A transferred membrane was cut into desired bands, which were placed in a blocking solution of 5% skim milk powder, placed on a shaker, and shaken at room temperature at a low speed for 1 h. A primary antibody was diluted with the blocking solution, a corresponding antibody was pipetted and added to a zip lock bag, the PVDF membrane was then placed in the antibody dilution, bubbles in the zip lock bag were evacuated, and the zip lock bag was sealed and placed in a refrigerator at 4° C. overnight. The membrane was withdrawn from the zip lock bag on the second day, and placed in a clean dish. A TBST solution was added and washed 3 times on a low-speed shaker, 10 min for each time. […]

[2] = test system: human liver cancer cell strain HepG2; experiment: MTT growth inhibition on HepG2; type: cell-based; conditions: Homo sapiens, read-out: IC50 HepG2;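 further: adherent cells in 96-well plates treated with a concentration series for 24, 48 or 72 h, MTT absorbance read at 490 nm, inhibition computed relative to untreated control wells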
Method: as §2, §3, §4, §5, §6, §7, §8

[3] = test system: C-Myc, Ki-67, CylinD1, β-Catenin protein; experiment: Western blotting, protein expression in HepG2 cells; type: cell-based, human; conditions: sorafenib 4 μg/mL, high FICD dosage 20 μg/mL, combination 4 μg/mL sorafenib+10 μg/mL FICD
Procedure: as §1

[4] = test system: human breast cancer cell strain MAD-MB-231; experiment: MTT growth inhibition on MAD-MB-231; type: cell-based; conditions: MDA-MB-231, after 48 h of action
Method: as §2, §3
The single cell suspension was diluted to 5×10^3/100 μL after counting, inoculated on a 96-well cell culture plate (triplicate), and adherently cultured overnight; […]
as §7

[5] = test system: ascites hepatoma H22 induced solid tumor; experiment: In vivo tumor growth inhibition in mice bearing H22; parameters: species or system white Kunming mice; conditions: Table 4, intraperitoneal, 10 d
Source text: 1. Tumor strain and animal for experiments: H22 liver cancer cell strain was provided by Teaching and Research Office, School of Basic Medical Sciences, Lanzhou University/Key Lab of Preclinical Study for New Drugs of Gansu Province, and was passage and preserved by periodically intraperitoneal inoculation. White Kunming mice (18.0-22.0 g) were provided by Lanzhou Veterinary Institute, Chinese Academy of Agriculture.
2. Establishment of tumor models and method of grouping: a third passage of mice which were well grown 7 d after intraperitoneal inoculation of H22 tumor cells were sacrificed by cervical dislocation, and placed and soaked in 75% alcohol for 10 min. After 3 mL of sterile physiological saline was intraperitoneally injected, milky tumor cell ascites was withdrawn from the abdominal cavity, and formulated into a tumor cell suspension with sterile physiological saline, with a cell number of 1.5×10^7 mL^−1. 80 white Kunming mice were taken, and 0.2 mL of the tumor cell suspension was subcutaneously inoculated to the left axilla of each mouse. 24 h after the inoculation of tumor cells, the mice were divided into 8 groups according to body weights, 10 mice for each group. […] All of the administration manners were intraperitoneal administration.
3. Result of experiments: On the second day of modeling, continuous administration was performed for 10 d. Administration was stopped on the 11th d, and mice were sacrificed by cervical dislocation on the next day.
Test method: For the test method, see Example 24. Results can be seen in FIG. 15, FIG. 16, and Table 5.
Method: Modeling was performed by using the method of establishing H22 white mice tumor-bearing model of Example 24. The in vivo tumor growth inhibition activity of COM33 on H22 model mice was measured in an intraperitoneal injection administration manner.

SMILES: COc1cc(NC(=O)Nc2ccc(Cl)c(C(F)(F)F)c2)c2c(c1O)-c1c(OC)c(OC)cc3c1C(C2)N(C)CC3 (stereo not shown) [Compound 1]
- apoptosis and cell morphology, Anneixn V-FITC and PI double-staining (HepG2 cells): apoptoses occurred during various phases
- IC50 ([1]; MGC-803, 48 h, read-out: IC50 MGC-803, after 48 h of action): 15.6 ± 2.4 µg/mL
- IC50 ([1]; MGC-803, read-out: IC50 MGC-803, Table 1, MTT): 16.6 µM
- IC50 ([1]; MGC-803, read-out: IC50 MGC-803, Table 2, MTT): 16.6 µM
- Vimentin expression (Vimentin): significantly increased
- IC50 ([2]; HepG2, 48 h, after 48 h of action): 10.1 ± 1.2 µg/mL
- IC50 ([2]; HepG2, Table 1, MTT): 17.2 µM
- IC50 ([2]; HepG2, Table 2, MTT): 17.2 µM
- expressions of C-Myc, Ki-67, CylinD1 and β-Catenin protein compared to the blank group [3]: significantly reduced
- IC50 [4]: 14.2 ± 0.66 µg/mL (≈ 24.6 µM)
- Tumor inhibition rate (%) ([5]; high FICD dosage 150 mg/Kg): 50.8%
- Tumor inhibition rate (%) ([5]; low FICD dosage 50 mg/Kg): 39.1%
- Tumor inhibition rate (%) ([5]; middle FICD dosage 100 mg/Kg): 45.6%
